Source: article PMC4261083, “An atypical residue in the pore of Varroa destructor GABA-activated RDL receptors affects picrotoxin block and thymol modulation” (Insect Biochemistry and Molecular Biology, 2014)
Where a chain is given by its changes, count along the chain named.

How the values were obtained:
[1] = target: T1, A20′S mutant Drosophila RDL receptor (Drosophila melanogaster, UniProt P25123, A319S); assay: Picrotoxin inhibition of GABA responses, two electrode voltage clamp in Xenopus oocytes; type: cell-based
T1 construct: expressed in transfected cells; host or cells: Xenopus laevis oocytes injected with cRNA
T1 sequence (P25123 45-606 A319S): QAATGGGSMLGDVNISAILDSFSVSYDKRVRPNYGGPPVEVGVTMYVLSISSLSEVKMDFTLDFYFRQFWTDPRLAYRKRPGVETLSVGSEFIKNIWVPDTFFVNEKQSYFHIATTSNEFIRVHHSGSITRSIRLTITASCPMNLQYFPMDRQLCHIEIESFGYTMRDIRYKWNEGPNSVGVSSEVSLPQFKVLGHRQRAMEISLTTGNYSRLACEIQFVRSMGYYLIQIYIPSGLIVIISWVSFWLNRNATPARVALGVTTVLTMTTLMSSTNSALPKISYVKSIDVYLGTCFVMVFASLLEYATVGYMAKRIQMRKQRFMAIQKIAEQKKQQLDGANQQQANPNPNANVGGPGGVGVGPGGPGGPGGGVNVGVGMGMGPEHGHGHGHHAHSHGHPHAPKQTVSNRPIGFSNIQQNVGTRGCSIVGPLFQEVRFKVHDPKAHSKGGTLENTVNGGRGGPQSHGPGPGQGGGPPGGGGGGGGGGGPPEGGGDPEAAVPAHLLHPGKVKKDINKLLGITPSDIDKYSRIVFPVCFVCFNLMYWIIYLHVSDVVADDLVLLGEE
Protocol: (§1) X. laevis oocyte-positive females were purchased from NASCO (Fort Atkinson, Wisconsin, USA) and maintained according to standard methods. Harvested stage V-VI Xenopus oocytes were washed in four changes of ND96 (96 mM NaCl, 2 mM KCl, 1 mM MgCl2, 1 mM CaCl2, 5 mM HEPES, pH 7.5), de-folliculated in 1.5 mg ml^−1 collagenase Type 1A for approximately 2 h, washed again in four changes of ND96 and stored in ND96 containing 2.5 mM sodium pyruvate, 0.7 mM theophylline and […].
(§2) Drosophila RDL subunit cDNA (kindly gifted from N.Millar) was subcloned into pGEMHE for oocyte expression as previously described ([McGonigle and Lummis, 2010], [Millar et al., 1994]). Site directed mutagenesis was performed with the QuikChange mutagenesis kit (Agilent, La Jolla, CA). cRNA was transcribed in vitro from linearised pGEMHE cDNA template using the mMessage mMachine T7 Transcription kit (Ambion, Austin, Texas, USA). Stage V and VI oocytes were injected with 5 ng cRNA, incubated at 18 °C, and currents recorded 18–24 h post-injection.
(§3) Xenopus oocytes were clamped at −60 mV using an OC-725 amplifier (Warner Instruments, Connecticut, USA), Digidata 1322A and the Strathclyde Electrophysiology Software Package (Department of Physiology and Pharmacology, University of Strathclyde, UK), or using the Roboocyte (MultiChannel Systems). Currents were recorded at 5 kHz and filtered at a frequency of 1 kHz. Micro-electrodes were fabricated from borosilicate glass (GC120TF-10, Harvard Apparatus, Edenbridge, Kent, UK) using a one stage horizontal pull (P-87, Sutter Instrument Company, California, USA) and filled with 3 M KCl. Pipette resistances ranged from 1.0 to 2.0 MΩ. Oocytes were perfused with ND96 at a constant rate of 12 ml min^−1. Drug application was via a simple gravity fed system calibrated to run at the same rate.
(§4) Analysis and curve fitting was performed using Prism v5 (GraphPad Software, San Diego, California, USA). Concentration-response data for each oocyte was normalised to the maximum current for that oocyte. The mean and S.E.M. for a series of oocytes were fitted to the four parameter logistic equation in Prism.

[2] = target: T2, N-7′H mutant Drosophila RDL receptor (Drosophila melanogaster, UniProt P25123, N292H); assay: as above; type: cell-based; settings: N-7′H RDL
T2 construct: expressed in transfected cells; host or cells: Xenopus laevis oocytes injected with cRNA
T2 sequence (P25123 45-606 N292H): T1 sequence (P25123 45-606 A319S) with N248H, S275A
Protocol: as §1, §2, §3, §4

## picrotoxin
[1]
  IC50: 46 nM
  Picrotoxin pIC50: 7.33 ± 0.13
[2]
  IC50: 560 nM
  Picrotoxin pIC50: 6.25 ± 0.64
